Measured values reported in publication PMC7994753, “The Availability of the α7-Nicotinic Acetylcholine Receptor in Early Identification of Vulnerable Atherosclerotic Plaques: A Study Using a Novel ^18F-Label Radioligand PET” (Frontiers in Bioengineering and Biotechnology, 2021).

Key:
5-HT3 = biological target: T1, 5-HT3 (Mus musculus, UniProt P23979); experiment: Blocking experiment with ondansetron pre-injection, brain uptake; assay type: in vivo; details: ondansetron 2 mg/kg pre-injected 10 min before tracer; CD-1 mice brain, 60 min after injection
T1 construct: from tissue; host or cells: brain of living CD-1 mice
T1 sequence (P23979 24-489): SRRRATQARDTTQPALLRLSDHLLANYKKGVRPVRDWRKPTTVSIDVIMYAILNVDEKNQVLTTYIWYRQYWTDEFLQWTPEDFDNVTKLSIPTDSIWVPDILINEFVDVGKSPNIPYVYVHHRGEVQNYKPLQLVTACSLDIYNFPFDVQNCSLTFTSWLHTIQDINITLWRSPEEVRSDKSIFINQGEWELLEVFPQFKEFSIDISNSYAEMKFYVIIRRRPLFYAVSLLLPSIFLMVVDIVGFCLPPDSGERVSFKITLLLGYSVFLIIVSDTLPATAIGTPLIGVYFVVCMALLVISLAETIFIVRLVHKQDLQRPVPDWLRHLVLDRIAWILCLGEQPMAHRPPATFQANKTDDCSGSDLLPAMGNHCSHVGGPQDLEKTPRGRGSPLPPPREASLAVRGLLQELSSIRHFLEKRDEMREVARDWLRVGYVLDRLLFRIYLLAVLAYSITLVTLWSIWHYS
Procedure: (§1) To further determine the specific binding of [^18F]YLF-DW to α7nAChR over other similar receptors, blocking experiments were carried out by pre-subcutaneous injection of blocking agents. α4β2nAChR, a heteromeric nAChR subtype widely expressed and 5-HT3, a receptor sharing high sequence homology with α7nAChR, were the most likely receptors to cross binding with α7nAChR ligands. We used the brain tissues of CD-1 mice to do the blocking experiment. Cytisine (1 mg/kg, a selective partial agonist of α4β2nAChR) and ondansetron (2 mg/kg, a selective antagonist of 5-HT3) were pre-injected 5 and 10 min prior to the intravenous injection of [^18F]YLF-DW, respectively. The CD-1 mice were sacrificed at 60 min after the [^18F]YLF-DW injection, and the brain tissues were harvested.

α7nAChR = biological target: α7nAChR; design: method as in Wang S. et al., 2018; details: previous experiment, ref Wang S. et al., 2018; cited from earlier work
α4β2nAChR = biological target: T2, α4β2nAChR (Mus musculus, UniProt O70174+Q9ERK7); experiment: Blocking experiment with cytisine pre-injection, brain uptake; assay type: in vivo; details: cytisine 1 mg/kg pre-injected 5 min before tracer; CD-1 mice brain, 60 min after injection
T2 construct: from tissue; host or cells: brain of living CD-1 mice
T2 sequence (O70174 31-629): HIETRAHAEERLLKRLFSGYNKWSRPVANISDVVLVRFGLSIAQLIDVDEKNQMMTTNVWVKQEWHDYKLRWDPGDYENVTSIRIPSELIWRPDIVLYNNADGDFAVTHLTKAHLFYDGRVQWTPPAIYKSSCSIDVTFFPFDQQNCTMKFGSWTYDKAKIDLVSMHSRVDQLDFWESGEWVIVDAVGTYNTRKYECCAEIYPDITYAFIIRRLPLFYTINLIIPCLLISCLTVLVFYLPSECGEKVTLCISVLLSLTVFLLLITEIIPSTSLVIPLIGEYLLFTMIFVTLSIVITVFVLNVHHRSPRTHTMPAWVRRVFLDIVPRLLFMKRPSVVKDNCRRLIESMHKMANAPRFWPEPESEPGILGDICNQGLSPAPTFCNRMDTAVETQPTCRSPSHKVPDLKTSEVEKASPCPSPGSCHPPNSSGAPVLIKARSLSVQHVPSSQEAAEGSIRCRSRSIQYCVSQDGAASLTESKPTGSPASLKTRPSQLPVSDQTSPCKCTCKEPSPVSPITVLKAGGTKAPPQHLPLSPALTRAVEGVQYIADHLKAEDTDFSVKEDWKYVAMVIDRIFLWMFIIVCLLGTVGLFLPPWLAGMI
T2 sequence (Q9ERK7 26-501): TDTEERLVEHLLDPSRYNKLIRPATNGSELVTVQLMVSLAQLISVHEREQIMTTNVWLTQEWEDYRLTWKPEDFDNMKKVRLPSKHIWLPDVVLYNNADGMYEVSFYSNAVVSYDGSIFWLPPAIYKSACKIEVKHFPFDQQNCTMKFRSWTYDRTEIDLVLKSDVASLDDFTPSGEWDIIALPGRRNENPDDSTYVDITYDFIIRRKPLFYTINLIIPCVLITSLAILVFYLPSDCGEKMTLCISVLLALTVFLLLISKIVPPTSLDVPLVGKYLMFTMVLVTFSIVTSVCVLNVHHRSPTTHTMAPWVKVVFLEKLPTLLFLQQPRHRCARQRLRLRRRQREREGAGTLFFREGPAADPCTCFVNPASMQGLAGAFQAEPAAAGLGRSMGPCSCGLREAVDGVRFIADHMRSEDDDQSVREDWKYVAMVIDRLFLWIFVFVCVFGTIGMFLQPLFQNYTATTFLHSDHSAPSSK
Procedure: as §1

[1] = design: method as in Wang S. et al., 2018; details: ref Wang S. et al., 2018, cited from earlier work
[2] = biological target: T3, α7nAChR in atherosclerotic plaques (Mus musculus, UniProt P49582); experiment: Micro-PET/CT imaging of carotid atherosclerotic plaques; assay type: in vivo, ApoE-/-mice and normal mice
T3 construct: superimposed on the high uptake region in carotid arteries of ApoE-/-mice; from tissue; host or cells: carotid arteries / atherosclerotic plaques of living ApoE-/- mice and normal mice
T3 sequence (P49582 23-502): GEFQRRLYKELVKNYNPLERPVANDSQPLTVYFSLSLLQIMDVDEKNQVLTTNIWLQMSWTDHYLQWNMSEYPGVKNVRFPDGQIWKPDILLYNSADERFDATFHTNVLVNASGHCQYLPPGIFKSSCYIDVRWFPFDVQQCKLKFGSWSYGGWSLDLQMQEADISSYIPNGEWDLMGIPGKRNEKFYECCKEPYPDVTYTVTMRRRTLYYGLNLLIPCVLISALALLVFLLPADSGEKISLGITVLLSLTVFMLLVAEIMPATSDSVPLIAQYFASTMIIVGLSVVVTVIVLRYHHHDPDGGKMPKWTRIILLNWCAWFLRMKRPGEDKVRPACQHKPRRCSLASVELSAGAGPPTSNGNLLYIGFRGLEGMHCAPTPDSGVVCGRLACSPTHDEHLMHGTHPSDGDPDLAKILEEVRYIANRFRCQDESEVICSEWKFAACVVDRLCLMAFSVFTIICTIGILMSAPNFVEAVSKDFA
From the text: ApoE-/-mice (n = 6, weight 25–33 g) and normal mice (n = 6, weight 25–33g) were purchased from Qingzilan Technology Co., Ltd (Nanjing, China). After 1 week of feeding with common feed, the selected ApoE-/-mice were fed with western diet, containing 21% fat and 0.15% cholesterol content, with a high-fat/high-cholesterol content for 9–10 weeks and subjected to micro-PET/CT imaging. The tissues were used for red staining and immunohistochemistry experiments. The normal mice served as controls for micro-PET/CT imaging and their tissues for immunohistochemistry. All mice were kept in a temperature-controlled environment with a 12 h light/dark cycle with free access to food and water. Animal care and experimental procedures were conducted in compliance with the Helsinki Declaration and approved by Fuwai hospital animal care committee.
When the animal models were 10 and 11 weeks old, the micro-PET/CT imaging were conducted. An Inveon small animal PET/CT scanner (Siemens,Germany) was used to perform the scans. A total volume of 5.56 MBq (150 μCi) of [^18F]YLF-DW was injected into six ApoE-/-mice and six normal mice by the tail veins, and the animal models were anesthetized with 2% isoflurane through inhalation. We performed PET/CT dynamic scanning. After screening, the acquisition was performed at 1 h after tail vein injections. The micro-PET/CT was initially performed with the following parameters: energy peak, 511 keV; window width, 3.5 E0 SUV-bw; resolution, 0.775 mm/pixel; and matrix, 128 × 128. Each mouse required a 15-min acquisition and the computed tomography (CT) was performed after PET scanning in the same bed position using the following parameters: frame resolution, 256 × 512; tube voltage, 80 kVp; current, 0.5 mA; and exposure time, 500 ms/frame.
The images were reconstructed by two-dimensional-ordered subsets expectation maximization. The three-dimensional regions of interest (ROIs) were superimposed on the high uptake region in carotid arteries of ApoE-/-mice. The tissue density was presumed as 1 g/ml, and % ID/g was calculated based on the dose injected into the mice.

## O=C1c2cc(N3CCN4CCC3CC4)ccc2-c2cccc([18F])c21 [[^18F]YLF-DW]
5-HT3
  difference in radioligand uptake, blocked group vs control group: no significant difference
α7nAChR
  Ki: 2.98 ± 1.41 nM
α4β2nAChR
  difference in radioligand uptake, blocked group vs control group: no significant difference
[1]; 15 min post-injection, Kunming mouse
  initial brain uptake: 11.60 ± 0.14 %ID/g
[1]; 30 min post-injection, Kunming mouse
  brain/blood value: 9.57
[1]; Kunming mouse brains
  clearance from brain: fast clearance
[2]; ApoE-/-mouse, 5.56 MBq i.v., acquisition 1 h after injection
  carotid artery plaque imaging signal: obvious in the carotid artery
[2]; ApoE-/-mouse, comparison with [^18F]FDG
  early detection of carotid plaques compared with traditional imaging agent: better than [^18F]FDG
[2]; normal control mice, 5.56 MBq i.v., acquisition 1 h after injection
  carotid artery imaging signal: no signal was observed
